US20160045505A1, “COMPOUNDS AND COMPOSITIONS FOR THE TREATMENT OF PARASITIC DISEASES” (NOVARTIS AG, priority 2013, published 2016)
Where two headings read alike, the source gives them in different places.

Tests used:
[1] = system: Leishmania donovani axenic amastigote parasites; assay: Leishmania donovani axenic amastigote proliferation assay (Cell TiterGlo luminescence, 2 day incubation); format: cell-based; details: Leishmania donovani, L. donovani axenic amastigotes; read-out: L. donovani amastigotes EC50
[2] = system: L. donovani HU3 strain in mouse peritoneal macrophages; assay: Assay for proliferation of Leishmania parasites in infected mouse peritoneal macrophages (SybrGreen staining, high-content imaging, 5 days); format: cell-based, Leishmania donovani; details: Leishmania donovani, Peritoneal macrophage, L. donovani in mouse peritoneal macrophages; read-out: L. donovani Macrophage EC50
[3] = system: Trypanosoma brucei Lister 427 strain, bloodstream form; assay: Assay for proliferation of kinetoplastid parasite Trypanosoma brucei (Cell Titer Glo, 48 hours); format: cell-based; details: Trypanosoma brucei
How it was run: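 Bloodstream-form T. brucei Lister 427 in HMI-9 medium was exposed to compound (DMSO vehicle) for 48 hours at 37° C, 5% CO2. Parasite growth was read as ATP by CellTiter-Glo luminescence, with EC50 calculated from percent inhibition.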

[4] = system: Trypanosoma cruzi amastigotes (Tulahuen strain expressing Lac-Z) cultured in 3T3 fibroblast cells; assay: microbe, parasite or virus in culture; format: cell-based; details: Trypanosoma cruzi, TULAHUEN, Fibroblast, T. cruzi amastigotes in 3T3 fibroblast cells; read-out: T cruzi EC50
[5] = T. brucei Lister 427 bloodstream form, read-out: T. brucei EC50

CC(C)OC(=O)Nc1cnc2nc(-c3cc(Nc4ccccn4)ccc3F)cn2c1 [Compound 484, isopropyl (2-(2-fluoro-5-(pyridin-2-ylamino)phenyl)imidazo[1,2-a]pyrimidin-6-yl)carbamate]
EC50 [1]: 1480 nM | EC50 [2]: 9110 nM | EC50 [3, 5]: 1.36 µM | EC50 [4]: 361 nM

CC(C)OC(=O)Nc1cnc2nc(-c3cc(Nc4ncccc4C(F)(F)F)ccc3F)cn2c1 [Compound 485]
EC50 [1]: > 25000 nM | EC50 [2]: 11500 nM | EC50 [3, 5]: > 50 µM | EC50 [4]: 1970 nM

CC(C)OC(=O)Nc1cnc2nc(-c3cc(Nc4ncccc4OC(F)(F)F)ccc3F)cn2c1 [Compound 487]
EC50 [1]: > 25000 nM | EC50 [2]: > 50000 nM | EC50 [3, 5]: > 50 µM | EC50 [4]: > 16600 nM

Cc1nc(C)c(C(=O)Nc2ccc(F)c(-c3cn4cc(Nc5ncccc5C(F)(F)F)cnc4n3)c2)o1 [Compound 488]
EC50 [1]: 32 nM | EC50 [2]: 132 nM | EC50 [3, 5]: 0.058 µM | EC50 [4]: 36 nM

CC1(O)CN(c2cnc3nc(-c4cc(NC(=O)N5CCCC5)ccc4Cl)cn3c2)C1 [Compound 489]
EC50 [1]: 1770 nM | EC50 [2]: 7790 nM | EC50 [3, 5]: 0.152 µM | EC50 [4]: 6710 nM

Cc1nc(C)c(C(=O)Nc2ccc(F)c(-c3cn4cc(N5C[C@@H](C)O[C@@H](C)C5)cnc4n3)c2)o1 [Compound 491]
EC50 [1]: 234 nM | EC50 [2]: 743 nM | EC50 [3, 5]: 0.14 µM | EC50 [4]: 296 nM

Cc1nc(C)c(C(=O)Nc2ccc(F)c(-c3cn4cc(N5CCC[C@@H]5C(F)(F)F)cnc4n3)c2)o1 [Compound 492]
EC50 [1]: 841 nM | EC50 [2]: 1520 nM | EC50 [3, 5]: 0.472 µM | EC50 [4]: 310 nM

Cc1nc(C)c(C(=O)Nc2ccc(F)c(-c3cn4cc(N5CCCC5)cnc4n3)c2)o1 [Compound 493]
EC50 [1]: 260 nM | EC50 [2]: 192 nM | EC50 [3, 5]: 0.04 µM | EC50 [4]: 31 nM

Cc1nc(C)c(C(=O)Nc2ccc(F)c(-c3cn4cc(NC5CC5)cnc4n3)c2)o1 [Compound 494]
EC50 [1]: 3520 nM | EC50 [2]: 4060 nM | EC50 [3, 5]: 1.01 µM | EC50 [4]: 1300 nM

O=C(Nc1ccc(Cl)c(-c2cn3cc(N4CCCC4)cnc3n2)c1)N1CCCC1 [Compound 495]
EC50 [1]: 235 nM | EC50 [2]: 233 nM | EC50 [3, 5]: 0.036 µM | EC50 [4]: 55 nM

CC(C)OC(=O)Nc1cnc2nc(-c3cc(Nc4nccc5ccoc45)ccc3F)cn2c1 [Compound 497]
EC50 [1]: 641 nM | EC50 [2]: 1280 nM | EC50 [3, 5]: 0.496 µM | EC50 [4]: 112 nM

COc1cccnc1Nc1ccc(F)c(-c2cn3cc(NC(=O)OC(C)C)cnc3n2)c1 [Compound 498]
EC50 [1]: 849 nM | EC50 [2]: 28000 nM | EC50 [3, 5]: 0.478 µM | EC50 [4]: 1340 nM

CC(C)OC(=O)Nc1cnc2nc(-c3cc(NC4=NCCO4)ccc3F)cn2c1 [Compound 499]
EC50 [1]: > 25000 nM | EC50 [2]: 8260 nM | EC50 [3, 5]: 4.67 µM | EC50 [4]: 9420 nM

CC(C)OC(=O)Nc1cnc2nc(-c3cc(NC4=NC(C)(C)CO4)ccc3F)cn2c1 [Compound 500]
EC50 [1]: > 25000 nM | EC50 [2]: > 17600 nM | EC50 [3, 5]: > 50 µM | EC50 [4]: > 20000 nM

CC(C)OC(=O)Nc1cnc2nc(-c3cc(NC4=NCC(C)O4)ccc3F)cn2c1 (stereo not drawn) [Compound 501]
EC50 [1]: > 25000 nM | EC50 [2]: > 50000 nM | EC50 [3, 5]: 3.14 µM | EC50 [4]: 10500 nM

CC1COC(Nc2ccc(F)c(-c3cn4cc(NC(=O)OC(C)C)cnc4n3)c2)=N1 (stereo not drawn) [Compound 502]
EC50 [1]: > 25000 nM | EC50 [2]: 16000 nM | EC50 [3, 5]: 6.73 µM | EC50 [4]: 11000 nM

CC(C)OC(=O)Nc1cnc2nc(-c3cc(NC4=NCC(C)(C)O4)ccc3F)cn2c1 [Compound 503]
EC50 [1]: > 25000 nM | EC50 [2]: 26600 nM | EC50 [3, 5]: 36.7 µM | EC50 [4]: > 20000 nM

Cc1nc(C)c(C(=O)Nc2ccc(F)c(-c3cn4cc(NC5=NCC(C)O5)cnc4n3)c2)o1 (stereo not drawn) [Compound 504]
EC50 [1]: 2970 nM | EC50 [2]: 5510 nM | EC50 [3, 5]: 0.976 µM | EC50 [4]: 10700 nM

Cc1nc(C)c(C(=O)Nc2ccc(F)c(-c3cn4cc(NC5=NC(C)(C)CO5)cnc4n3)c2)o1 [Compound 505]
EC50 [1]: 1170 nM | EC50 [2]: 3480 nM | EC50 [3, 5]: 0.845 µM | EC50 [4]: 5000 nM

Cc1nc(C)c(C(=O)Nc2ccc(F)c(-c3cn4cc(NC5=NCC(C)(C)O5)cnc4n3)c2)o1 [Compound 507]
EC50 [1]: 1850 nM | EC50 [2]: 5800 nM | EC50 [3, 5]: 1.26 µM | EC50 [4]: 9920 nM

Cc1nc(C)c(C(=O)Nc2ccc(F)c(-c3cn4cc(NC5=NCC(C(F)(F)F)O5)cnc4n3)c2)o1 (stereo not drawn) [Compound 508]
EC50 [1]: 1710 nM | EC50 [2]: 8240 nM | EC50 [3, 5]: 4.36 µM | EC50 [4]: 11500 nM

Cc1nc(C)c(C(=O)Nc2ccc(F)c(-c3cn4cc(NC5=NCC(C)(C)N5)cnc4n3)c2)o1 [Compound 509]
EC50 [1]: > 25000 nM | EC50 [2]: > 50000 nM | EC50 [3, 5]: 10.3 µM | EC50 [4]: > 20000 nM

Cc1nc(C)c(C(=O)Nc2ccc(F)c(-c3cn4cc(NC5=N[C@H]6CCCC[C@@H]6O5)cnc4n3)c2)o1 [Compound 510]
EC50 [1]: 1600 nM | EC50 [2]: 8130 nM | EC50 [3, 5]: 4.01 µM | EC50 [4]: 2610 nM

Cc1nc(C)c(C(=O)Nc2ccc(F)c(-c3cn4cc(NC5=N[C@@H]6CCC[C@H]6O5)cnc4n3)c2)o1 [Compound 511]
EC50 [1]: 1550 nM | EC50 [2]: 2280 nM | EC50 [3, 5]: 0.59 µM | EC50 [4]: 3680 nM

Cc1nc(C)c(C(=O)Nc2ccc(F)c(-c3cn4cc(NC(=O)OCCCCl)cnc4n3)c2)o1 [Compound 519]
EC50 [1]: 244 nM | EC50 [2]: 1620 nM | EC50 [3, 5]: 0.366 µM | EC50 [4]: 3260 nM

Cc1nc(C)c(C(=O)Nc2ccc(F)c(-c3cn4cc(NC5=NC(C)CO5)cnc4n3)c2)o1 (stereo not drawn) [Compound 524]
EC50 [1]: 3510 nM | EC50 [2]: 9540 nM | EC50 [3, 5]: 1 µM | EC50 [4]: 12600 nM

Cc1nnc(C(=O)Nc2cccc(-c3cn4cc(NC(=O)OC(C)C)cnc4n3)c2)o1 [Compound 526, isopropyl (2-(3-(5-methyl-1,3,4-oxadiazole-2-carboxamido)phenyl)imidazo[1,2-a]pyrimidin-6-yl)carbamate]
EC50 [1]: > 25000 nM | EC50 [2]: > 50000 nM | EC50 [3, 5]: > 50 µM | EC50 [4]: > 20000 nM

Cc1nnc(C(=O)Nc2ccc(Cl)c(-c3cn4cc(NC(=O)OC(C)C)cnc4n3)c2)o1 [Compound 527]
EC50 [1]: > 25000 nM | EC50 [2]: 5770 nM | EC50 [3, 5]: > 50 µM | EC50 [4]: > 20000 nM

Cc1nc(C(=O)Nc2ccc(Cl)c(-c3cn4cc(NC(=O)OC(C)C)cnc4n3)c2)no1 [Compound 528]
EC50 [1]: > 25000 nM | EC50 [2]: 8940 nM | EC50 [3, 5]: 6.96 µM | EC50 [4]: > 20000 nM

CC(C)OC(=O)Nc1cnc2nc(-c3cc(N4C(=O)c5ccccc5C4=O)ccc3Cl)cn2c1 [Compound 530, isopropyl (2-(2-chloro-5-(1,3-dioxoisoindolin-2-yl)phenyl)imidazo[1,2-a]pyrimidin-6-yl)carbamate]
EC50 [1]: > 13100 nM | EC50 [2]: > 50000 nM | EC50 ([3]; read-out: T. brucei EC50 (μM)): > 50 µM | EC50 [4]: > 20000 nM

CC(C)OC(=O)Nc1cnc2nc(-c3cc(-n4cn[nH]c4=O)ccc3Cl)cn2c1 [Compound 535]
EC50 [1]: > 25000 nM | EC50 [2]: > 35500 nM | EC50 [3, 5]: 31.1 µM | EC50 [4]: > 20000 nM

C=C(C)c1cnc2nc(-c3cc(NC(=O)c4oc(C)nc4C)ccc3F)cn2c1 [Compound 537, N-(4-fluoro-3-(6-(prop-1-en-2-yl)imidazo[1,2-a]pyrimidin-2-yl)phenyl)-2,4-dimethyloxazole-5-carboxamide]
EC50 [1]: 124 nM | EC50 [2]: 286 nM | EC50 [3, 5]: 0.164 µM | EC50 [4]: 103 nM

Cc1nc(C)c(C(=O)Nc2ccc(F)c(-c3cn4cc(C5CCNCC5)cnc4n3)c2)o1 [Compound 538, N-(4-fluoro-3-(6-(piperidin-4-yl)imidazo[1,2-a]pyrimidin-2-yl)phenyl)-2,4-dimethyloxazole-5-carboxamide]
EC50 [1]: 2360 nM | EC50 [2]: 1860 nM | EC50 [3, 5]: 0.613 µM | EC50 [4]: 447 nM

Cc1nc(C)c(C(=O)Nc2ccc(F)c(-c3cn4cc(C#CCCO)cnc4n3)c2)o1 [Compound 543, N-(4-fluoro-3-(6-(4-hydroxybut-1-yn-1-yl)imidazo[1,2-a]pyrimidin-2-yl)phenyl)-2,4-dimethyloxazole-5-carboxamide]
EC50 [1]: 212 nM | EC50 [2]: 759 nM | EC50 [3, 5]: 0.134 µM | EC50 [4]: 882 nM

Cc1nc(C)c(C(=O)Nc2ccc(F)c(-c3cn4cc(C#CCCN5CCOCC5)cnc4n3)c2)o1 [Compound 544, N-(4-fluoro-3-(6-(4-morpholinobut-1-yn-1-yl)imidazo[1,2-a]pyrimidin-2-yl)phenyl)-2,4-dimethyloxazole-5-carboxamide]
EC50 [1]: 4040 nM | EC50 [2]: 19300 nM | EC50 [3, 5]: > 50 µM | EC50 [4]: 4010 nM

Cc1nc(C)c(C(=O)Nc2ccc(F)c(-c3cn4cc(C#CCCN5CCCC(O)C5)cnc4n3)c2)o1 (stereo not drawn) [Compound 545]
EC50 [1]: 3900 nM | EC50 [2]: 2130 nM | EC50 [3, 5]: 3.25 µM | EC50 [4]: 7180 nM

Cc1nc(C)c(C(=O)Nc2ccc(F)c(-c3cn4cc(C#CCCN5CCN(C)CC5)cnc4n3)c2)o1 [Compound 546]
EC50 [1]: 5660 nM | EC50 [2]: 30200 nM | EC50 [3, 5]: 3.18 µM | EC50 [4]: 3850 nM

COCCOc1cnc2nc(-c3cc(NC(=O)c4oc(C)nc4C)ccc3F)cn2c1 [Compound 547, N-(4-fluoro-3-(6-(2-methoxyethoxy)imidazo[1,2-a]pyrimidin-2-yl)phenyl)-2,4-dimethyloxazole-5-carboxamide]
EC50 [1]: 856 nM | EC50 [2]: 4530 nM | EC50 [3, 5]: 0.607 µM | EC50 [4]: 1360 nM

COC(=O)c1cnc2nc(-c3cc(NC(=O)c4oc(C)nc4C)ccc3F)cn2c1 [Compound 548, methyl 2-(5-(2,4-dimethyloxazole-5-carboxamido)-2-fluorophenyl)imidazo[1,2-a]pyrimidine-6-carboxylate]
EC50 [1]: 651 nM | EC50 [2]: 1070 nM | EC50 [3, 5]: 0.518 µM | EC50 [4]: 539 nM
